Source: patent publication US11701372B2, “Inhalation formulations of 1'-cyano substituted carba-nucleoside analogs” (priority 2020, dated 2023)
Where two headings read alike, the source gives them in different places.

Key:
in vivo [1] = conditions: both, monkey, inhaled or intranasal
Method: (§1) The average deposited dose was calculated at 0.168 mg/kg and 0.536 mg/kg, respectively. Plasma, peripheral blood mononuclear cells (PBMCs), trachea, bronchi, lung lobe, liver, kidney, nasal mucosa and nasopharyngeal mucosa samples were collected in this study.

[2] = PK following IV administration of Formula Ia in African Green Monkeys; set-up: species or system African Green Monkeys; conditions: monkey, in vivo; 10 mg/kg IV AGM; read-out: AUC0-t
in vivo [3] = conditions: both, monkey, 0.168 mg/kg
Method: as §1

[4] = In use testing of reconstituted solutions in IV bags and IV tubings; type: physicochemical
Source text: The IV bags and IV tubings were sampled over time and tested for % assay/degradation.

[5] = Plasma PK of Formula Ia and metabolites after inhalation in African Green Monkeys; conditions: both, monkey, in vivo
Method: as §1

[6] = both, monkey, in vivo, 0.168 mg/kg
Method: as §1

[7] = type: physicochemical; conditions: for % assay/degs: T = 0
Method: For each condition, samples were staged at ambient and refrigerated conditions. Samples were analyzed for % assay/degs, appearance, reconstitution time, pH, and compared to T=0. The structures of the key impurities/metabolites are shown below.

[8] = inhaled or intranasal, 0.168 mg/kg
[9] = inhaled or intranasal, 0.536 mg/kg

N#C[C@@]1(c2ccc3c(N)ncnn23)O[C@H](CO)[C@@H](O)[C@H]1O [Compound A]
Tmax (in vivo [1]; 0.168 mg/kg): 1 h | Cmax (in vivo [1]; 0.536 mg/kg): 71 ± 11 nM | Tmax (in vivo [1]; 0.536 mg/kg): 2 h | AUC(0-t) [2]: 9.06 µM·h | concentration at 24 h (in vivo [3]): 302 ± 44 nM | % assay/degradation ([4]; 0 h, 0.3 mg/mL): 0.02 % w/w | % assay/degradation ([4]; 30 mg (IV Bag), Ambient 8 h): 0.02 % w/w | % assay/degradation ([4]; 30 mg (IV Bag), Ambient 24 h): 0.02 % w/w | % assay/degradation ([4]; 30 mg (IV Bag), T = 0 (2-8° C. series)): 0.02 % w/w | % assay/degradation ([4]; 30 mg (IV Tube), Ambient 6 Hours): 0.03 % w/w | % assay/degradation ([4]; 200 mg (IV Bag), 2-8° C. 24 h): 0.02 % w/w | % assay/degradation ([4]; 200 mg (IV Bag), 2-8° C. 48 h): 0.02 % w/w | % assay/degradation ([4]; 200 mg (IV Bag), Ambient 8 h): 0.02 % w/w | % assay/degradation ([4]; 200 mg (IV Bag), Ambient 24 h): 0.02 % w/w | % assay/degradation ([4]; 200 mg (IV Bag), T = 0 (2-8° C. series)): 0.02 % w/w | % assay/degradation ([4]; 200 mg in 100 mL 0.9% Saline (IV Bag), T = 0 (Ambient series)): 0.02 % w/w | % assay/degradation ([4]; 4 h, 0.3 mg/mL): 0.02 % w/w | % assay/degradation ([4]; 4 h, 2 mg/mL): 0.02 % w/w | % assay/degradation ([4]; 6 h, 2 mg/mL): 0.02 % w/w | % assay/degradation ([4]; 24 h, 0.3 mg/mL): 0.02 % w/w | % assay/degradation ([4]; 48 h, 0.3 mg/mL): 0.02 % w/w | concentration at 0.25 h ([5]; 0.168 mg/kg): 3 ± 1 nM | concentration at 1 h ([5]; 0.168 mg/kg): 31 ± 7 nM | concentration at 2 h ([5]; 0.168 mg/kg): 25 ± 5 nM | concentration at 24 h ([5]; 0.168 mg/kg): 2 nM | concentration at 0.75 h ([5]; 0.536 mg/kg): 29 ± 8 nM | concentration at 1.52 h ([5]; 0.536 mg/kg): 58 ± 3 nM | concentration at 2 h ([5]; 0.536 mg/kg): 71 ± 11 nM | concentration at 4 h ([5]; 0.536 mg/kg): 43 ± 9 nM | concentration at 8 h ([5]; 0.536 mg/kg): 22 ± 5 nM | concentration at 24 h ([5]; 0.536 mg/kg): 5 ± 1 nM | AUC(0-t) [5, 8]: 0.191 ± 0.03 µM·h | Cmax [5, 8]: 31 ± 7 nM | half-life [5, 8]: 7.58 ± 1.03 h | AUC(0-t) [5, 9]: 0.539 ± 0.076 µM·h | half-life [5, 9]: 7.1 ± 0.36 h | mean estimated terminal elimination half-life [6]: 7.58 h | % assay/degs, difference from T = 0 ([7]; pH 1.8, 2-8° C., 2 h): 0.00% | % assay/degs, difference from T = 0 ([7]; pH 1.8, 2-8° C., 3 h): 0.00% | % assay/degs, difference from T = 0 ([7]; pH 1.8, 2-8° C., 8 h): 0.00% | % assay/degs, difference from T = 0 ([7]; pH 1.8, 2-8° C., 24 h): 0.01% | % assay/degs, difference from T = 0 ([7]; pH 1.8, 2-8° C., 48 h): 0.02% | % assay/degs, difference from T = 0 ([7]; pH 1.8, Ambient, 1 h): 0.00% | % assay/degs, difference from T = 0 ([7]; pH 1.8, Ambient, 2 h): 0.00% | % assay/degs, difference from T = 0 ([7]; pH 1.8, Ambient, 3 h): 0.01% | % assay/degs, difference from T = 0 ([7]; pH 1.8, Ambient, 8 h): 0.01% | % assay/degs, difference from T = 0 ([7]; pH 1.8, Ambient, 24 h): 0.05% | % assay/degs, difference from T = 0 ([7]; pH 1.8, Ambient, 48 h): 0.09% | % assay/degs ([7]; pH 1.8): 0.02% | % assay/degs, difference from T = 0 ([7]; pH 2.0, 2-8° C., 2 h): 0.00% | % assay/degs, difference from T = 0 ([7]; pH 2.0, 2-8° C., 3 h): 0.00% | % assay/degs, difference from T = 0 ([7]; pH 2.0, 2-8° C., 8 h): 0.00% | % assay/degs, difference from T = 0 ([7]; pH 2.0, 2-8° C., 24 h): 0.00% | % assay/degs, difference from T = 0 ([7]; pH 2.0, 2-8° C., 48 h): 0.01% | % assay/degs, difference from T = 0 ([7]; pH 2.0, Ambient, 1 h): 0.00% | % assay/degs, difference from T = 0 ([7]; pH 2.0, Ambient, 2 h): 0.00% | % assay/degs, difference from T = 0 ([7]; pH 2.0, Ambient, 3 h): 0.00% | % assay/degs, difference from T = 0 ([7]; pH 2.0, Ambient, 8 h): 0.01% | % assay/degs, difference from T = 0 ([7]; pH 2.0, Ambient, 24 h): 0.03% | % assay/degs, difference from T = 0 ([7]; pH 2.0, Ambient, 48 h): 0.06% | % assay/degs ([7]; pH 2.0): 0.02% | % assay/degs, difference from T = 0 ([7]; pH 3.5, 2-8° C., 2 h): 0.00% | % assay/degs, difference from T = 0 ([7]; pH 3.5, 2-8° C., 8 h): 0.00% | % assay/degs, difference from T = 0 ([7]; pH 3.5, 2-8° C., 24 h): 0.00% | % assay/degs, difference from T = 0 ([7]; pH 3.5, 2-8° C., 48 h): 0.00% | % assay/degs, difference from T = 0 ([7]; pH 3.5, 2-8° C., 72 h): 0.00% | % assay/degs, difference from T = 0 ([7]; pH 3.5, 2-8° C., 96 h): 0.00% | % assay/degs, difference from T = 0 ([7]; pH 3.5, 2-8° C., 168 h): 0.00% | % assay/degs, difference from T = 0 ([7]; pH 3.5, Ambient, 2 h): 0.00% | % assay/degs, difference from T = 0 ([7]; pH 3.5, Ambient, 8 h): 0.00% | % assay/degs, difference from T = 0 ([7]; pH 3.5, Ambient, 24 h): 0.00% | % assay/degs, difference from T = 0 ([7]; pH 3.5, Ambient, 48 h): 0.00% | % assay/degs, difference from T = 0 ([7]; pH 3.5, Ambient, 72 h): 0.00% | % assay/degs, difference from T = 0 ([7]; pH 3.5, Ambient, 96 h): 0.01% | % assay/degs, difference from T = 0 ([7]; pH 3.5, Ambient, 168 h): 0.01% | % assay/degs ([7]; pH 3.5): 0.02% | % assay/degs, difference from T = 0 ([7]; pH 3.8, 2-8° C., 7.2 h): 0.00% | % assay/degs, difference from T = 0 ([7]; pH 3.8, 2-8° C., 24 h): 0.00% | % assay/degs, difference from T = 0 ([7]; pH 3.8, 2-8° C., 96 h): 0.00% | % assay/degs, difference from T = 0 ([7]; pH 3.8, 2-8° C., 168 h): 0.00% | % assay/degs, difference from T = 0 ([7]; pH 3.8, Ambient, 7.2 h): 0.00% | % assay/degs, difference from T = 0 ([7]; pH 3.8, Ambient, 24 h): 0.00% | % assay/degs, difference from T = 0 ([7]; pH 3.8, Ambient, 96 h): 0.00% | % assay/degs, difference from T = 0 ([7]; pH 3.8, Ambient, 168 h): 0.00% | % assay/degs ([7]; pH 3.8): 0.02% | % assay/degs, difference from T = 0 ([7]; pH 4.0, 2-8° C., 7.2 h): 0.00% | % assay/degs, difference from T = 0 ([7]; pH 4.0, 2-8° C., 24 h): 0.00% | % assay/degs, difference from T = 0 ([7]; pH 4.0, 2-8° C., 96 h): 0.00% | % assay/degs, difference from T = 0 ([7]; pH 4.0, 2-8° C., 168 h): 0.00% | % assay/degs, difference from T = 0 ([7]; pH 4.0, Ambient, 7.2 h): 0.00% | % assay/degs, difference from T = 0 ([7]; pH 4.0, Ambient, 24 h): 0.00% | % assay/degs, difference from T = 0 ([7]; pH 4.0, Ambient, 96 h): 0.00% | % assay/degs, difference from T = 0 ([7]; pH 4.0, Ambient, 168 h): 0.00% | % assay/degs ([7]; pH 4.0): 0.02%
